Here are results for three compounds from ChEMBL document CHEMBL1128049, “5-cyano-1-[3-(N-methylpyrrolidin-2R-ylmethyl)indol-5-yl] benzimidazole (CP-161,242): A potent, centrally active 5-HT1D receptor agonist and benzodiazepine partial agonist” (Bioorg Med Chem Lett, 1995).

Assay [1] addresses T1, 5-hydroxytryptamine receptor 1A (Rattus norvegicus, UniProt P19327).
T1 sequence (P19327 whole entry): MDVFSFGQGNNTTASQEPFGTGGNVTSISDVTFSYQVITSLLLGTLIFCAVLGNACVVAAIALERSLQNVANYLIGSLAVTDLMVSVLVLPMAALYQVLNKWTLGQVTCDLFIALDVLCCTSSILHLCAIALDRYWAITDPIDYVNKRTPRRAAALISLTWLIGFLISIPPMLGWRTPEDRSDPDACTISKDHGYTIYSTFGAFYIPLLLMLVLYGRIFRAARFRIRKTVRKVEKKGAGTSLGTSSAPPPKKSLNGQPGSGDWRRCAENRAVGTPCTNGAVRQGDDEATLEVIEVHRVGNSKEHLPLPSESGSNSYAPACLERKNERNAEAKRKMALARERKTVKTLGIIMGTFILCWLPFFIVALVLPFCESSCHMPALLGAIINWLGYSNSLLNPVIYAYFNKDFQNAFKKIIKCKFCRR
Briefly: Tested in vitro for receptor binding affinity to 5-hydroxytryptamine 1A receptor in rat cortex using [3H]OH-DPAT radioligand.

Assay [2] deals with 5-hydroxytryptamine receptor 1D (Cavia porcellus, UniProt Q60484). Briefly: Compound was tested for the inhibition of forskolin-stimulated adenylate cyclase at 5-hydroxytryptamine 1D receptor in guinea pig substantia nigra.
The target of assay [3] is GABA-A receptor; anion channel. Briefly: In vitro displacement of [3H]flunitrazepam from GABA-A central benzodiazepine receptor of guinea pig cerebellum. The class given is tissue-based, Cavia porcellus.

Sequence of 5-hydroxytryptamine receptor 1D (Q60484 whole entry): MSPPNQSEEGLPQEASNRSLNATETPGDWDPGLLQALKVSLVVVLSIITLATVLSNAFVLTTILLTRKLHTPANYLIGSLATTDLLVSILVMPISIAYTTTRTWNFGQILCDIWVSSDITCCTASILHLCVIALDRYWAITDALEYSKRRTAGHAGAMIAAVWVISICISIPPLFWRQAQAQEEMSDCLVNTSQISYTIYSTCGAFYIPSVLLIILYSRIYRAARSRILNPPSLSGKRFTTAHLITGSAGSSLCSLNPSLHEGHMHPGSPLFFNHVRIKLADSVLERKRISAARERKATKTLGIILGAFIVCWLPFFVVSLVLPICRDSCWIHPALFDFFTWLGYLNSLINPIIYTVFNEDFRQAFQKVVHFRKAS

On to `CN1CCC[C@@H]1Cc1c[nH]c2ccc(-n3cnc4cc(C#N)ccc43)cc12`, for which the IC50 (commonly the concentration at which inhibition is half-maximal) in assay [1] came to 20 nM; in assay [3], 3.3 nM. In addition, in assay [2], the half-maximal effective concentration (EC50) – broadly, the concentration needed to bring the measured effect to its halfway point – is 0.042 nM.
In the same order, the values of `CN(C)CCc1c[nH]c2ccc(-n3cnc4cccnc43)cc12` are 210 nM, 89 nM and 14 nM.
Compound `NCCc1c[nH]c2ccc(O)cc12` [SEROTONIN] showed an EC50 in assay [2] of 8.5 nM.
